# Results reported in patent US6706663B2, “Herbicidal 3-heterocyclic substituted benzisothiazole and benzisoxazole compounds” (Wyeth, priority 2000, dated 2004).
# Experiments:
# [1] = system: ABUTH (Abutilon theophrasti); assay: Preemergence herbicidal evaluation; type: in vivo, Medic.; settings: preemergence, rated 4-5 weeks after treatment
# [2] = system: ECHCG (Echinochloa crus-galli); assay: Preemergence herbicidal evaluation; type: in vivo, (L.) Beau; settings: preemergence, rated 4-5 weeks after treatment
# Summary of the method: (§1)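 Visual 0-9 rating versus untreated control, taken four to five weeks post-treatment, scoring stand, vigor, malformation, size, chlorosis and overall appearance. Compound applied as aqueous acetone spray to freshly seeded soil cups, then kept under standard greenhouse care.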
# SETVI (Setaria viridis) = assay: Preemergence herbicidal evaluation; type: in vivo, (L.) Beau; settings: preemergence, rated 4-5 weeks after treatment
# Summary of the method: as §1
# CYPIR (Cyperus iria) = assay: Flooded paddy, preemergence weed control; type: in vivo; settings: rated 3-4 weeks after treatment, 0-9 rating scale
# Summary of the method: (§2)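 In this preemergence paddy assay, weed seeds or organs are sown at up to 0.5 cm in silt loam and covered by 1.5–3 cm of water for the full test period. After treatment the pots are kept in a greenhouse, and herbicidal effect is rated 0-9 visually against a control.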
# [3] = system: TRZAWR (Wheat, Winter, cv Riband); assay: Preemergence herbicidal evaluation; type: in vivo, Triticum aestivum; settings: preemergence, rated 4-5 weeks after treatment
# Summary of the method: as §1
# [4] = system: CASOB (Cassia obtusifolia); assay: Preemergence herbicidal evaluation; type: in vivo, L.; settings: preemergence, rated 4-5 weeks after treatment
# Summary of the method: as §1
# [5] = system: CHEAL (Chenopodium album); assay: Preemergence herbicidal evaluation; type: in vivo, L.; settings: preemergence, rated 4-5 weeks after treatment
# Summary of the method: as §1
# [6] = system: AMBEL (Ambrosia artemisifolia); assay: Preemergence herbicidal evaluation; type: in vivo, L.; settings: preemergence, rated 4-5 weeks after treatment
# Summary of the method: as §1
# [7] = system: ABUTH (Abutilon theophrasti); assay: Postemergence herbicidal evaluation; type: in vivo, Medic.
# Summary of the method: (§3)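 Visual 0–9 injury scores versus control plants, covering stand, vigour, malformation, size, chlorosis and general appearance, taken four to five weeks post-spray and averaged over replicate tests. Plants were sprayed at roughly two weeks old and held on greenhouse benches.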
# [8] = system: CASOB (Cassia obtusifolia); assay: Postemergence herbicidal evaluation; type: in vivo, L.
# Summary of the method: as §3
# [9] = system: CHEAL (Chenopodium album); assay: Postemergence herbicidal evaluation; type: in vivo, L.
# Summary of the method: as §3
# [10] = system: AMBEL (Ambrosia artemisifolia); assay: Postemergence herbicidal evaluation; type: in vivo, L.
# Summary of the method: as §3
# [11] = system: MOOVA (Monochoria vaginalis); assay: Flooded paddy, preemergence weed control; type: in vivo, Presl.; settings: rated 3-4 weeks after treatment, 0-9 rating scale
# Summary of the method: as §2
# [12] = system: IPOHE (Ipomoea hederacea); assay: Postemergence herbicidal evaluation; type: in vivo, (L.) Jacq.
# Summary of the method: as §3
# ORYSAT (Rice, Tebonnet) [13] = assay: Flooded paddy, post-transplant rice tolerance; type: in vivo, Oryza sativa, (L.) Tebonnet; settings: flooded paddy, post-transplant rice, rated 3-4 weeks after treatment, 0-9 rating scale
# Summary of the method: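 Visual 0–9 injury rating against a control, covering stand, vigor, malformation, size, chlorosis and overall appearance. Treatment was post-transplant onto flooded containers (water 1.5–3 cm deep, silt loam) holding two ten-day-old cv. Tebonnet seedlings, maintained on greenhouse benches.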
# [14] = system: IPOHE (Ipomoea hederacea); assay: Preemergence herbicidal evaluation; type: in vivo, (L.) Jacq.; settings: preemergence, rated 4-5 weeks after treatment
# [15] = system: GLXMAW (Soybean, Williams); assay: Postemergence herbicidal evaluation; type: in vivo, Glycine max, (L.) Merr. cv Williams
# Summary of the method: as §3
# ZEAMX (Corn, Field) = assay: Preemergence herbicidal evaluation; type: in vivo, Zea mays, L.; settings: preemergence, rated 4-5 weeks after treatment
# ORYSAT (Rice, Tebonnet) [16] = assay: Postemergence herbicidal evaluation; type: in vivo, Oryza sativa, (L.) Tebonnet
# Summary of the method: as §3
# [17] = system: GLXMAW (Soybean, Williams); assay: Preemergence herbicidal evaluation; type: in vivo, Glycine max, (L.) Merr. cv Williams; settings: preemergence, rated 4-5 weeks after treatment
compound,measurement,setting,value
"Cn1c(C(F)(F)F)cc(=O)n(-c2ccc3snc(-c4ccsc4)c3c2)c1=O [Compound 1, 1-methyl-3-[3-(3-thienyl)-1,2-benzisothiazol-5-yl]-6-(trifluoromethyl)uracil]",ABUTH preemergence herbicidal rating,[1]; Rate 0.0620 kg/ha,9.0
same,ABUTH preemergence herbicidal rating,[1]; Rate 0.1250 kg/ha,9.0
same,ABUTH preemergence herbicidal rating,[1]; Rate 0.2500 kg/ha,9.0
same,ECHCG preemergence herbicidal rating,[2]; Rate 0.0620 kg/ha,7.3
same,ECHCG preemergence herbicidal rating,[2]; Rate 0.1250 kg/ha,8.0
same,ECHCG preemergence herbicidal rating,[2]; Rate 0.2500 kg/ha,9.0
same,SETVI preemergence herbicidal rating,SETVI (Setaria viridis); Rate 0.0620 kg/ha,9.0
same,SETVI preemergence herbicidal rating,SETVI (Setaria viridis); Rate 0.1250 kg/ha,9.0
same,SETVI preemergence herbicidal rating,SETVI (Setaria viridis); Rate 0.2500 kg/ha,9.0
same,"herbicidal rating, CYPIR",CYPIR (Cyperus iria); rate 0.0080 kg/ha,9.0
same,"herbicidal rating, CYPIR",CYPIR (Cyperus iria); rate 0.0320 kg/ha,9.0
same,"herbicidal rating, CYPIR",CYPIR (Cyperus iria); rate 0.1250 kg/ha,9.0
same,TRZAWR preemergence herbicidal rating,[3]; Rate 0.0620 kg/ha,3.5
same,TRZAWR preemergence herbicidal rating,[3]; Rate 0.1250 kg/ha,4.0
same,TRZAWR preemergence herbicidal rating,[3]; Rate 0.2500 kg/ha,5.0
same,CASOB preemergence herbicidal rating,[4]; Rate 0.0620 kg/ha,7.3
same,CASOB preemergence herbicidal rating,[4]; Rate 0.1250 kg/ha,8.3
same,CASOB preemergence herbicidal rating,[4]; Rate 0.2500 kg/ha,8.3
same,CHEAL preemergence herbicidal rating,[5]; Rate 0.0620 kg/ha,9.0
same,CHEAL preemergence herbicidal rating,[5]; Rate 0.1250 kg/ha,9.0
same,CHEAL preemergence herbicidal rating,[5]; Rate 0.2500 kg/ha,9.0
same,AMBEL preemergence herbicidal rating,[6]; Rate 0.0620 kg/ha,7.3
same,AMBEL preemergence herbicidal rating,[6]; Rate 0.1250 kg/ha,9.0
same,AMBEL preemergence herbicidal rating,[6]; Rate 0.2500 kg/ha,9.0
same,"Postemergence herbicidal rating, ABUTH",[7]; rate 0.0320 kg/ha,9.0
same,"Postemergence herbicidal rating, ABUTH",[7]; rate 0.0620 kg/ha,9.0
same,"Postemergence herbicidal rating, ABUTH",[7]; rate 0.1250 kg/ha,9.0
same,"Postemergence herbicidal rating, CASOB",[8]; rate 0.0320 kg/ha,5.5
same,"Postemergence herbicidal rating, CASOB",[8]; rate 0.0620 kg/ha,7.5
same,"Postemergence herbicidal rating, CASOB",[8]; rate 0.1250 kg/ha,9.0
same,"Postemergence herbicidal rating, CHEAL",[9]; rate 0.0320 kg/ha,9.0
same,"Postemergence herbicidal rating, CHEAL",[9]; rate 0.0620 kg/ha,9.0
same,"Postemergence herbicidal rating, CHEAL",[9]; rate 0.1250 kg/ha,9.0
same,"Postemergence herbicidal rating, AMBEL",[10]; rate 0.0320 kg/ha,9.0
same,"Postemergence herbicidal rating, AMBEL",[10]; rate 0.0620 kg/ha,9.0
same,"Postemergence herbicidal rating, AMBEL",[10]; rate 0.1250 kg/ha,9.0
same,"herbicidal rating, MOOVA",[11]; rate 0.0080 kg/ha,9.0
same,"herbicidal rating, MOOVA",[11]; rate 0.0320 kg/ha,9.0
same,"herbicidal rating, MOOVA",[11]; rate 0.1250 kg/ha,9.0
same,"Postemergence herbicidal rating, IPOHE",[12]; rate 0.0320 kg/ha,9.0
same,"Postemergence herbicidal rating, IPOHE",[12]; rate 0.0620 kg/ha,9.0
same,"Postemergence herbicidal rating, IPOHE",[12]; rate 0.1250 kg/ha,9.0
same,"herbicidal rating, ORYSAT (rice tolerance)","ORYSAT (Rice, Tebonnet) [13]; rate 0.0080 kg/ha",4.0
same,"herbicidal rating, ORYSAT (rice tolerance)","ORYSAT (Rice, Tebonnet) [13]; rate 0.0320 kg/ha",5.5
same,"herbicidal rating, ORYSAT (rice tolerance)","ORYSAT (Rice, Tebonnet) [13]; rate 0.1250 kg/ha",7.0
same,IPOHE preemergence herbicidal rating,[14]; Rate 0.0620 kg/ha,8.0
same,IPOHE preemergence herbicidal rating,[14]; Rate 0.1250 kg/ha,9.0
same,IPOHE preemergence herbicidal rating,[14]; Rate 0.2500 kg/ha,9.0
same,"Postemergence herbicidal rating, GLXMAW",[15]; rate 0.0320 kg/ha,6.8
same,"Postemergence herbicidal rating, GLXMAW",[15]; rate 0.0620 kg/ha,7.0
same,"Postemergence herbicidal rating, GLXMAW",[15]; rate 0.1250 kg/ha,7.8
same,ZEAMX preemergence herbicidal rating,"ZEAMX (Corn, Field); Rate 0.0620 kg/ha",6.0
same,ZEAMX preemergence herbicidal rating,"ZEAMX (Corn, Field); Rate 0.1250 kg/ha",6.7
same,ZEAMX preemergence herbicidal rating,"ZEAMX (Corn, Field); Rate 0.2500 kg/ha",7.0
same,"Postemergence herbicidal rating, ORYSAT","ORYSAT (Rice, Tebonnet) [16]; rate 0.0320 kg/ha",3.5
same,"Postemergence herbicidal rating, ORYSAT","ORYSAT (Rice, Tebonnet) [16]; rate 0.0620 kg/ha",3.5
same,"Postemergence herbicidal rating, ORYSAT","ORYSAT (Rice, Tebonnet) [16]; rate 0.1250 kg/ha",5.0
same,GLXMAW preemergence herbicidal rating,[17]; Rate 0.0620 kg/ha,7.0
same,GLXMAW preemergence herbicidal rating,[17]; Rate 0.1250 kg/ha,9.0
same,GLXMAW preemergence herbicidal rating,[17]; Rate 0.2500 kg/ha,9.0
